Laboratory results: US10081629B2, “Amide derivatives and pharmaceutically acceptable salts thereof, preparation method thereof and medicinal application thereof” (Shanghai Hengrui Pharmaceutical Co., Ltd., priority 2014, dated 2018)

How the values were obtained:
[1] = target: human mPGES1 (Homo sapiens (Human), UniProt O14684); assay: Inhibition activity for human mPGES1 (enzyme assay, PGE2 HTRF); type: biochemical; settings: membrane protein from HEK-293 F transfected with human mPGES1
Description: The method described here is used for determining the inhibition activity of the present compounds for human mPGES1.
• 1. PGE2 Assay kit (Cisbio, #62P2APEB) • 2. Prostaglandin H2 (Sigma, #P7867-1MG) • 3. FlexStation3 microplate reader. II. Experimental Procedure • 1. Obtaining the membrane proteins of mPGES1 enzyme
The cell density of HEK-293 F was grown to 6×10^5 per milliliter and was transferred with the plasmid containing human mPGES1 gene by transfection reagent PEI the next day. The cells were continuously cultured for 72 hours at 37° C. with shaking. After centrifuging at 1100 g for 5 minutes, the cells were harvested. After ultrasonication in an ice bath and centrifugation at 5000 g for 10 minutes, the supernatant was obtained. The supernatant was centrifuged at 100000 g for 1 hour to obtain a precipitate. The precipitate was resuspended with storage buffer containing 10% glycerinum, subpackaged and frozen rapidly under liquid nitrogen, and stored at −80° C. • 2. mPGES1 enzyme assay
mPGES1 was diluted with assay buffer and added into plate at 49 μL/well supplemented with 1 μL of compound (the final concentration of each compound at seven gradient concentrations was 10000 nM, 1000 nM, 100 nM, 10 nM, 1 nM, 0.1 nM and 0.01 nM). […] Then, each well was added with 53.8 μL of 6 mg/mL SnCl2 to quench the reaction. The sample was diluted with dilute buffer at 1:400. 10 μl of diluted sample, 5 μL PGE2-d2 and 5 μL anti-PGE2 Cryptate were added to a black 384-well plate, and incubated at 4° C. overnight. HTRF was determined using Flexstation, and the IC50 of the compounds was obtained by data processing software.
The inhibition activity of the present compounds on mPGES1 was tested by the assay described above.

[2] = tested on: secretion of PGE2 by A549 cells stimulated with IL-1β; assay: Inhibition of the secretion of PGE2 by A549 cells stimulated with IL-1β; type: cell-based; settings: Homo sapiens, A549; IL-1β 0.2 ng/mL, 24 hours
Source text: The method described here was used for determining the inhibition activity of the present compounds on the secretion of PGE2 by A549 cells stimulated with IL-1β.
• 1. PGE2 Assay kit (Cisbio, #62P2APEB) • 2. IL-1β (Peprotech, # AF-200-01B) • 3. Cell line: A549 (ATCC: CCL-185) • 4. FlexStation3 microplate reader. II. Experimental Procedure
On the first day, A549 cells were inoculated in a 96-well plate at 40000/well. On the second day, the culture medium in the 96-well plate was removed and then added with 90 μL of compound diluted with culture medium (the concentration of each compound at seven gradient concentrations was 11111 nM, […], 1.11 nM, 0.11 nM and 0.011 nM). The cells were incubated for 30 minutes at 37° C. in an incubator, and then added with IL-1β to a final concentration of 0.2 ng/mL. Then, the cells were incubated for another 24 hours at 37° C. On the third day, 10 μl of supernatant, 5 μL of PGE2-d2 and 5 μL of anti-PGE2 Cryptate were added into a black 384-well plate, and then incubated at 4° C. overnight. HTRF was determined using Flexstation, and the IC50 of the compounds was obtained by data processing software.
The inhibition activity of the present compounds on the secretion of PGE2 by A549 cells stimulated with IL-1β was determined by the assay described above.

[3] = Pharmacokinetics assay in rats; type: in vivo; settings: both sexes, Sprague-Dawley, rat, plasma, po, SD rats, intragastric, 5 mg/kg; for Vd/F: read-out: Apparent Distribution Volume Vz/F; for AUC: read-out: Area Under Curve AUC; for CL/F: read-out: Clearance CLz/F; for half-life: read-out: Half-Life T½ (converted); for MRT: read-out: Mean Residence Time MRT; for Cmax: read-out: Plasma Conc. Cmax
Description: Rats were used as test animals. The drug concentration in plasma at different time points was determined by LC/MS/MS after administration of the compounds of Example 8, Example 11, Example 14, Example 17, Example 20, Example 27, Example 33, Example 35, Example 36, Example 37 and Example 48 to rats. The pharmacokinetic behavior of the present compounds was studied and evaluated in rats.
Forty four (44) healthy adult Sprague-Dawley (SD) rats, half male and half female, which were purchased from SINO-BRITSH SIPPR/BK LAB. ANIMAL LTD., CO, with Certificate No.: SCXK (Shanghai) 2008-0016, were divided into 11 groups, with 4 rats in each group.
The appropriate amount of test compounds was weighed, and mixed with 25 μL Tween 80 and Labrasol to prepare a 0.6 mg/mL suspension by ultrasonication.
After an overnight fast, 44 SD rats, half male and half female, were divided into 11 groups, and administered intragastrically at a dose of 5.0 mg/kg and an administration volume of 10 mL/kg.
Blood (0.1 mL) was sampled from the orbital sinus before administration and 0.5 h, 1.0 h, 2.0 h, 4.0 h, 6.0 h, 8.0 h, 11.0 h, and 24.0 h after administration. The samples were stored in EDTA anticoagulation tubes, and centrifuged for 5 minutes at 3,500 rpm to separate the blood plasma. The plasma samples were stored at −20° C. The rats were fed 2 hours after administration.
The plasma concentration of the test compounds in rat after intragastric administration was determined by LC-MS/MS. The linearity of the method is 5.00-2000 ng/mL and 1.00-2000 ng/ml, and the minimum of quantification is 5.00 ng/mL and 1.00 ng/mL.
Plasma samples were analyzed after pretreatment by protein precipitation.

human mPGES1, sequence (O14684 whole entry): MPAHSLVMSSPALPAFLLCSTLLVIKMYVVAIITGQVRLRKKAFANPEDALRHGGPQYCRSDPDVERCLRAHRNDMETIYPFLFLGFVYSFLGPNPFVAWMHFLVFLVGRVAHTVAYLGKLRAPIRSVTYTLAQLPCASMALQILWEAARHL

SMILES | IC50 [1] [µM] | IC50 [2] [µM] | Vd/F [3] [L/kg] | AUC [3] [µg·h/mL] | CL/F [3] [L/h/kg] | half-life [3] [h] | MRT [3] [h] | Cmax [3] [µg/mL]
COCCn1c(-c2ccc(C(F)(F)F)cc2)cc2cc(NC(=O)c3cc(CNC(=O)C(C)(C)F)cnc3C(F)F)ccc21 [Example 27, 2-(Difluoromethyl)-5-(((2-fluoro-2-methyl-propanoyl)amino)methyl)-N-(1-(2-methoxyethyl)-2-(4-(trifluoromethyl)phenyl)-1H-indol-5-yl)nicotinamide] | 0.00477 | 0.0134 | 15.1 ± 1.53 | 1.18 ± 0.247 | 4.4 ± 0.918 | 2.46 ± 0.59 | 5.32 ± 1.03 | 0.193 ± 0.023
Cn1c(-c2cccc(Cl)c2)cc2cc(NC(=O)c3cc(CNC(=O)C(C)(C)F)cnc3C(F)F)ncc21 [Example 36, N-(2-(3-Chlorophenyl)-1-methyl-1H-pyrrolo[2,3-c]pyridin-5-yl)-2-(difluoromethyl)-5-(((2-fluoro-2-methyl-propanoyl)amino)methyl)nicotinamide] | 0.00419 | 0.0132 | 7.22 ± 1.34 | 3.54 ± 1.97 | 1.82 ± 1.02 | 3.69 ± 2.4 | 6.56 ± 3.01 | 0.459 ± 0.157
CC(C)(F)C(=O)NCc1cnc(C(F)F)c(C(=O)Nc2ccc3oc(-c4cccc(C(F)(F)F)c4)cc3c2)c1 [Example 48, 2-(Difluoromethyl)-5-(((2-fluoro-2-methyl-propanoyl)amino)methyl)-N-(2-(3-(trifluoromethyl)phenyl)benzofuran-5-yl)nicotinamide] | 0.00358 | 0.0141 | 7.53 ± 1.69 | 2.26 ± 0.767 | 2.46 ± 1 | 2.3 ± 0.76 | 6.3 ± 1.62 | 0.263 ± 0.066
CC(C)(C)C(=O)NCc1ccc(Cl)c(C(=O)Nc2ccc3c(c2)CN(c2ccc(C(F)(F)F)cc2)C3)c1 [Example 25, 2-Chloro-5-((2,2-dimethylpropanoylamino)methyl)-N-(2-(4-(trifluoromethyl)phenyl)isoindolin-5-yl)benzamide] | 0.0119 | 0.0476 |  |  |  |  |  | 
CC(C)(F)C(=O)NCc1cnc(C(F)F)c(C(=O)Nc2ccc3c(c2)C(=O)N(c2cccc(C(F)(F)F)c2)C3)c1 [Example 59, 2-(Difluoromethyl)-5-(((2-fluoro-2-methyl-propanoyl)amino)methyl)-N-(3-oxo-2-(3-(trifluoromethyl)phenyl)isoindolin-5-yl)nicotinamide] | 0.00118 | 0.0205 |  |  |  |  |  | 
CC(C)C(=O)NCc1cnc(C(F)F)c(C(=O)Nc2ccc3c(c2)CN(c2ccc(C(F)(F)F)cc2)C3)c1 [Example 40, 2-(Difluoromethyl)-5-((2-methylpropanoylamino)methyl)-N-(2-(4-(trifluoromethyl)phenyl)isoindolin-5-yl)nicotinamide] | 0.0224 | 0.0169 |  |  |  |  |  | 
Cn1c(-c2ccc(Cl)cc2)cc2cc(NC(=O)c3cc(CNC(=O)C4(C(F)(F)F)CC4)cnc3C(F)F)ccc21 [Example 21, N-(2-(4-Chlorophenyl)-1-methyl-1H-indol-5-yl)-2-(difluoromethyl)-5-(((1-(trifluoromethyl)cyclopropanecarbonyl)amino)methyl)nicotinamide] | 0.00824 | 0.0574 |  |  |  |  |  | 
CCn1c(-c2ccccc2Cl)cc2cc(NC(=O)c3cc(CNC(=O)C(C)(C)F)cnc3C(F)F)ccc21 [Example 19, N-(2-(2-Chlorophenyl)-1-ethyl-1H-indol-5-yl)-2-(difluoromethyl)-5-(((2-fluoro-2-methyl-propanoyl)amino)methyl)nicotinamide] | 0.00812 | 0.0426 |  |  |  |  |  | 
CC(C)(F)C(=O)NCc1cnc(C(F)F)c(C(=O)Nc2ccc3c(c2)cc(-c2ccc(Cl)cc2)n3[C@@H]2CCOC2)c1 [Example 47, (R)-N-(2-(4-Chlorophenyl)-1-(tetrahydrofuran-3-yl)-1H-indol-5-yl)-2-(difluoromethyl)-5-(((2-fluoro-2-methyl-propanoyl)amino)methyl)nicotinamide] | 0.00572 | 0.0189 |  |  |  |  |  | 
CC(C)(C)C(=O)NCc1ccc(Cl)c(C(=O)Nc2ccc3c(c2)C(=O)N(c2ccc(C(F)(F)F)cc2)C3)c1 [Example 58] | 0.00851 | 0.00218 |  |  |  |  |  | 
CC(C)C(=O)NCc1cnc(C(F)F)c(C(=O)Nc2ccc3oc(-c4ccc(C(F)(F)F)cc4)nc3c2)c1 [Example 38, 2-(Difluoromethyl)-5-((2-methylpropanoylamino)methyl)-N-(2-(4-(trifluoromethyl)phenyl)benzo[d]oxazol-5-yl)nicotinamide] | 0.00543 | 0.0428 |  |  |  |  |  | 
CC(C)(F)C(=O)NCc1cnc(C(F)F)c(C(=O)Nc2ccc3c(c2)cc(-c2ccc(Cl)cc2)n3[C@H]2CCOC2)c1 [Example 46, (S)-N-(2-(4-Chlorophenyl)-1-(tetrahydrofuran-3-yl)-1H-indol-5-yl)-2-(difluoromethyl)-5-(((2-fluoro-2-methyl-propanoyl)amino)methyl)nicotinamide] | 0.00271 | 0.0247 |  |  |  |  |  | 
CCn1c(-c2ccc(C(F)(F)F)cc2)cc2cc(NC(=O)c3cc(CNC(=O)C(C)C)cnc3C(F)F)ccc21 [Example 1, 2-(difluoromethyl)-N-(1-ethyl-2-(4-(trifluoromethyl)phenyl)-1H-indol-5-yl)-5-((2-methylpropanoylamino)methyl)nicotinamide] | 0.00826 | 0.00355 |  |  |  |  |  | 
CC(C)C(=O)NCc1cnc(C(F)F)c(C(=O)Nc2ccc3c(c2)cc(-c2ccc(Cl)cc2)n3C)c1 [Example 13, N-(2-(4-chlorophenyl)-1-methyl-1H-indol-5-yl)-2-(difluoromethyl)-5-((2-methylpropanoylamino)methyl)nicotinamide] | 0.00743 | 0.0167 |  |  |  |  |  | 
CC(C)(F)C(=O)NCc1cnc(C(F)F)c(C(=O)Nc2ccc3oc(-c4ccc(C(F)(F)F)cc4)nc3c2)c1 [Example 23, 2-(Difluoromethyl)-5-(((2-fluoro-2-methyl-propanoyl)amino)methyl)-N-(2-(4-(trifluoromethyl)phenyl)benzo[d]oxazol-5-yl)nicotinamide] | 0.00473 | 0.049 |  |  |  |  |  | 
Cn1c(-c2ccc(F)cc2)cc2cc(NC(=O)c3cc(CNC(=O)C4(C(F)(F)F)CC4)ccc3Cl)ccc21 [Example 34, 2-Chloro-N-(2-(4-fluorophenyl)-1-methyl-1H-indol-5-yl)-5-(((1-(trifluoromethyl)cyclopropanecarbonyl)amino)methyl)benzamide] | 0.00775 | 0.0122 |  |  |  |  |  | 
